Reference: patent US9259452B2, “Deacetylase inhibitor therapy” (Celgene Corporation, priority 2006, dated 2016)

Test: ECG evaluation of T-wave (grade 1) and ST segment (grade 2) abnormalities, phase II trial of romidepsin in T-cell lymphoma patients
Format: in vivo, human
Conditions: for ECGs Grade 0 (no T-wave/ST segment abnormality) / ECGs Grade 1 (T-wave abnormality) / ECGs Grade 2 (ST segment depression): all doses, n = 42 patients
Source text: The protocol (NCI 01-C-0049 or 1312) and informed consent were approved by the Institutional Review Board of the National Cancer Institute. All data used in this analysis were obtained from patients who signed an informed consent and were enrolled and treated at the NIH Warren Grant Magnuson Clinical Center. Toxicities were reported using the National Cancer Institute Common Toxicity Criteria, CTC version 2.0. The Inclusion Criteria required measurable disease, an age of 18 years or older, an ECOG performance status of 0, 1 or 2, and a life expectancy of >12 wk. Required laboratory values included AGC≧1000/μL, platelets≧100,000/μL, bilirubin <1.5× the institutional upper limit of normal (ULN), AST <3×ULN, and creatinine <1.5×ULN. Patients with a myocardial infarction within the previous 6 months, a left ventricular ejection fraction (LVEF) below normal (<45% if performed by MUGA, or <50% if performed by echocardiogram or cardiac MRI), a corrected QT interval of >500 ms, unstable angina, or third degree heart block (unless with pacemaker) were not eligible to enroll.
Subsequently, the protocol was amended and all patients were treated on days 1, 8 and 15 of a 28 day cycle, with a starting dose of 14 mg/m^2. This change was made for improved patient tolerability. […] Provisions for dose reduction were made in the case of grade 3 or 4 toxicity. Alternatively, a dose increase was allowed for patients who had no serious toxicities.

[1] = Pre-treatment cycle 2 day 1 (n = 34), worst grade cycle 1: 1
[2] = Pre-treatment cycle 2 day 1 (n = 34), worst grade cycle 1: 2
[3] = Pre-treatment cycle 3 day 1 (n = 28), worst grade cycle 2: 1
[4] = Pre-treatment cycle 3 day 1 (n = 28), worst grade cycle 2: 2
[5] = Pre-treatment day 8 (n = 37), worst grade post-day 1 treatment 0
[6] = Pre-treatment day 8 (n = 37), worst grade post-day 1 treatment 1
[7] = Pre-treatment day 8 (n = 37), worst grade post-day 1 treatment 2
[8] = Pre-treatment day 15 (n = 36), worst grade post-day 8 treatment 0
[9] = Pre-treatment day 15 (n = 36), worst grade post-day 8 treatment 1
[10] = Pre-treatment day 15 (n = 36), worst grade post-day 8 treatment 2
[11] = Day after treatment, listed as depsipeptide
[12] = Immediate post infusion, listed as depsipeptide
[13] = Pre-treatment ECGs, listed as depsipeptide
[14] = any time during treatment, 37 patients on day 1, 8, 15 schedule
[15] = first dose of the first cycle (n = 42), Day 2
[16] = first dose of the first cycle (n = 42), Day 3
[17] = first dose of the first cycle (n = 42), Post infusion

C/C=C1\NC(=O)[C@H]2CSSCC/C=C/[C@H](CC(=O)N[C@H](C(C)C)C(=O)N2)OC(=O)[C@H](C(C)C)NC1=O [romidepsin, (1S,4S,10S,16E,21R)-7-[(2Z)-ethylidene]-4,21-diisopropyl-2-oxa-12,13-dithia-5,8,20,23-tetraazabicyclo[8.7.6]tricos-16-ene-3,6,9,19,22-pentanone]
Patients with worst ECG Grade 0 (All cycles, 42 patients): 2% | Patients with worst ECG Grade 1 (All cycles, 42 patients): 45% | Patients with worst ECG Grade 2 (All cycles, 42 patients): 52% | Patients with worst ECG Grade 0 (Cycle 1 only, 42 patients): 19% | Patients with worst ECG Grade 1 (Cycle 1 only, 42 patients): 57% | Patients with worst ECG Grade 2 (Cycle 1 only, 42 patients): 24% | Patients with ECG grade 0 at presentation for next cycle (Pre-treatment cycle 2 day 1 (n = 34), worst grade cycle 1: 0): 6 | Patients with ECG grade 0 at presentation for next cycle [1]: 18 | Patients with ECG grade 1 at presentation for next cycle [1]: 3 | Patients with ECG grade 0 at presentation for next cycle [2]: 4 | Patients with ECG grade 1 at presentation for next cycle [2]: 2 | Patients with ECG grade 2 at presentation for next cycle [2]: 1 | Patients with ECG grade 0 at presentation for next cycle (Pre-treatment cycle 3 day 1 (n = 28), worst grade cycle 2: 0): 2 | Patients with ECG grade 0 at presentation for next cycle [3]: 16 | Patients with ECG grade 1 at presentation for next cycle [3]: 1 | Patients with ECG grade 0 at presentation for next cycle [4]: 7 | Patients with ECG grade 1 at presentation for next cycle [4]: 2 | Patients with ECG grade 0 at presentation for next cycle (Pre-treatment cycle 4 day 1 (n = 20), worst grade cycle 3: 1): 14 | Patients with ECG grade 0 at presentation for next cycle (Pre-treatment cycle 4 day 1 (n = 20), worst grade cycle 3: 2): 6 | Patients with ECG grade 0 at presentation for next dose [5]: 14 | Patients with ECG grade 1 at presentation for next dose [5]: two | Patients with ECG grade 1 at presentation for next dose (Pre-treatment day 8 (n = 37), worst grade post-day 1 treatment 0, listed as depsipeptide): 2 | Patients with ECG grade 0 at presentation for next dose [6]: nine | Patients with ECG grade 1 at presentation for next dose [6]: 8 | Patients with ECG grade 2 at presentation for next dose [6]: 1 | Patients with ECG grade 0 at presentation for next dose (Pre-treatment day 8 (n = 37), worst grade post-day 1 treatment 1, listed as depsipeptide): 9 | Patients with ECG grade 0 at presentation for next dose [7]: two | Patients with ECG grade 1 at presentation for next dose [7]: 1 | Patients with ECG grade 0 at presentation for next dose (Pre-treatment day 8 (n = 37), worst grade post-day 1 treatment 2, listed as depsipeptide): 2 | Patients with ECG grade 0 at presentation for next dose [8]: 6 | Patients with ECG grade 1 at presentation for next dose [8]: 3 | Patients with ECG grade 0 at presentation for next dose [9]: 13 | Patients with ECG grade 1 at presentation for next dose [9]: 10 | Patients with ECG grade 0 at presentation for next dose [10]: 2 | Patients with ECG grade 1 at presentation for next dose [10]: 1 | Patients with ECG grade 2 at presentation for next dose [10]: 1 | ECGs Grade 0 (no T-wave/ST segment abnormality) (Day after treatment): 20% | ECGs Grade 1 (T-wave abnormality) (Day after treatment): 69% | ECGs Grade 2 (ST segment depression) (Day after treatment): 11% | ECGs Grade 1 (T-wave abnormality) [11]: 69% | ECGs Grade 2 (ST segment depression) [11]: 11% | ECGs Grade 0 (no T-wave/ST segment abnormality) (Immediate post infusion): 49% | ECGs Grade 1 (T-wave abnormality) (Immediate post infusion): 48% | ECGs Grade 2 (ST segment depression) (Immediate post infusion): 3% | ECGs Grade 1 (T-wave abnormality) [12]: 48% | ECGs Grade 2 (ST segment depression) [12]: 3% | ECGs Grade 0 (no T-wave/ST segment abnormality) (Pre-treatment ECGs): 76% | ECGs Grade 1 (T-wave abnormality) (Pre-treatment ECGs): 22% | ECGs Grade 2 (ST segment depression) (Pre-treatment ECGs): 2% | ECGs Grade 1 (T-wave abnormality) [13]: 22% | ECGs Grade 2 (ST segment depression) [13]: 2% | Patients with worst ECG Grade 1 [14]: 43% | Patients with worst ECG Grade 2 [14]: 54% | ECGs Grade 0 [15]: 49% | ECGs Grade 1 [15]: 44% | ECGs Grade 2 [15]: 7% | ECGs Grade 0 [16]: 55% | ECGs Grade 1 [16]: 45% | ECGs Grade 0 [17]: 82% | ECGs Grade 1 [17]: 18% | ECGs Grade 0 (first dose of the first cycle (n = 42), Pre (baseline)): 95%
